# Test results published in ChEMBL document CHEMBL1201862, “PubChem BioAssay data set” (2004).
# Active and inactive are the calls of the source.
# What was measured:
# [1] = HepG2 cell cytotoxicity, dose response, cytotoxicity control, plate reader, dry powder samples (AID 1159569); assay type: functional, cell-based;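 note: inhibitor potency with signal falling toward the positive control level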
# [2] = P. falciparum Dd2 growth inhibitors, dose response, SYBR Green, cherry-picked samples (AID 1159567); assay type: functional, cell-based
# [3] = P. falciparum ATP4 D1247Y mutant growth inhibitors, dose response, NITD609-resistant line, SYBR Green, dry powder (AID 1159571); assay type: functional, cell-based;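 note: parasites synchronized at ring stage by sorbitol before testing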
# [4] = P. falciparum Dd2 growth inhibitors, dose response, SYBR Green, dry powder samples (AID 1159566); assay type: functional, cell-based;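 note: potency for growth inhibition with lower SYBR green DNA signal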
# [5] = P. falciparum 3D7-ScDHODH growth inhibitors, dose response, SYBR Green, dry powder samples (AID 1159570); assay type: functional, cell-based;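 note: parasite growth measured after 72 hours of compound exposure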
# [6] = HepG2 cell cytotoxicity, dose response, cytotoxicity control, cherry-picked samples (AID 1159577); assay type: functional, cell-based
# [7] = cells; settings: HEK293
# [8] = A549 cell cytotoxicity, dose response, cytotoxicity control, plate reader, dry powder, set 6 (AID 743312); assay type: functional, cell-based
# [9] = HepG2 cell cytotoxicity, dose response, cytotoxicity control, plate reader, dry powder, set 6 (AID 743311); assay type: functional, cell-based
# [10] = cells
# [11] = inhibitors of intracellular T. cruzi replication, confirmation, NIH3T3 host cells, beta-gal luminescence (AID 2044); assay type: functional, cell-based;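 note: intracellular parasites grown in NIH/3T3 mouse fibroblasts as host cells; luminescent beta-galactosidase reporter signal from transgenic T. cruzi replicating inside host cells; inhibitors lower the luminescence signal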
# [12] = cytotoxicity toward NIH3T3 fibroblasts, dose response, counter-screen, cell-based, ATP luminescence, mouse fibroblasts (AID 2010); assay type: functional;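 note: cells exposed to compound for about 90 hours before reading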
# [13] = target: Photoreceptor-specific nuclear receptor (Homo sapiens, UniProt Q9Y5X4); assay: NR2E3 inverse agonists, dose response, biochemical, TR-FRET (AID 463256); assay type: functional
# [14] = target: Peroxisome proliferator-activated receptor gamma/Nuclear receptor corepressor 2 (Homo sapiens, UniProt P37231+Q9Y618); assay: Counterscreen for NR2E3 inverse agonists: TR-FRET-based biochemical high throughput dose response assay to identify inverse agonists of the interaction between peroxisome proliferator-activated receptor gamma (PPARg) and nuclear receptor co-repressor 2 (NCOR2).; assay type: functional
# [15] = RKO cell viability reduction, dose response, CellTiter-Glo luminescence (AID 1117322); assay type: functional
# [16] = CellTiter-Glo luminescent dose response of DLD-1 viability loss (AID 1117352); assay type: functional
# [17] = HeLa 4N DNA content increase, dose response, cell-based, IC50 (AID 1117351); assay type: functional
# [18] = cytotoxicity toward Colo320 cells – cell-based, CellTiter-Glo luminescence, IC50, dose response (AID 1117334); assay type: functional; settings: COLO 320
# [19] = cytotoxicity toward HT-29 cells – cell-based, CellTiter-Glo luminescence, IC50, dose response (AID 1117330); assay type: functional
# [20] = cytotoxicity toward HCT116 cells – cell-based, CellTiter-Glo luminescence, IC50, dose response (AID 1117332); assay type: functional; settings: HCT-116
# [21] = Concentration-dependent survival of SW480 colon cancer line, luminescence detection with CellTiter-Glo, half-maximal inhibitory concentration (AID 1117338); assay type: functional
# [22] = SNU-C1 cell viability reduction, dose response, CellTiter-Glo luminescence (AID 1117323); assay type: functional, cell-based
# [23] = HeLa 2N DNA content increase, dose response, cell-based, IC50 (AID 1117349); assay type: functional
# [24] = target: Diphosphomevalonate decarboxylase (Streptococcus pneumoniae serotype 2 (strain D39 / NCTC 7466), UniProt Q9FD53); assay: S. pneumoniae DPM-DC inhibition retest, confirmation, biochemical, cuvette format, coupled NADH fluorescence (AID 1028); assay type: functional
# [25] = PAX2 cell-based inhibition, dose response, selectivity assay for PAX8 inhibitor project, plate reader, dry powder samples (AID 743048); assay type: functional;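 note: HEK293 cells carrying a WT1 promoter luciferase reporter driven by expressed Pax2; potency is for inhibition of Pax2 driven reporter signal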
# [26] = cytotoxicity dependent on PAX8, dose response, cell-based, plate reader, dry powder (AID 743049); assay type: functional
# [27] = PAX5 activity inhibitors, dose response, selectivity assay for PAX8 inhibitor project, cell-based, plate reader, dry powder samples (AID 743047); assay type: functional;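 note: HEK293 cells carrying a Pax5 driven CD19 promoter luciferase reporter; potency of inhibitors that lower reporter luminescence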
# [28] = cytotoxicity in COV362 ovarian cancer cells, dose response, cytotoxicity control for PAX8 inhibitor project, cell-based, plate reader, dry powder, SA12 (AID 743144); assay type: functional
# [29] = target: Paired box protein Pax-8 (Homo sapiens, UniProt Q06710); assay: inhibitors of PAX8-driven TPO luciferase reporter, dose response, RMG-I cells, cherry-pick (AID 687027); assay type: functional, cell-based;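 note: luciferase reporter driven by Pax8 target thyroperoxidase promoter measured by SteadyGlo luminescence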
# [30] = cytotoxicity in OV-90 ovarian cancer cells, dose response, PAX8 inhibitor project, cell-based, plate reader, dry powder, SA8 (AID 743149); assay type: functional
# [31] = target: T1, Oxysterols receptor LXR-beta (Homo sapiens, UniProt P55055); assay type: functional, cell-based;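 note: Cell-based luminescence dose-response assay of agonist activity at LXR, run as a confirmatory counterscreen to a daf-12 agonist screen; HEK293 cells with Gal4-LXR fusion and GAL4-driven luciferase reporter; agonist potency from rising luciferase signal of a Gal4-LXR reporter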
# T1 sequence (P55055 whole entry): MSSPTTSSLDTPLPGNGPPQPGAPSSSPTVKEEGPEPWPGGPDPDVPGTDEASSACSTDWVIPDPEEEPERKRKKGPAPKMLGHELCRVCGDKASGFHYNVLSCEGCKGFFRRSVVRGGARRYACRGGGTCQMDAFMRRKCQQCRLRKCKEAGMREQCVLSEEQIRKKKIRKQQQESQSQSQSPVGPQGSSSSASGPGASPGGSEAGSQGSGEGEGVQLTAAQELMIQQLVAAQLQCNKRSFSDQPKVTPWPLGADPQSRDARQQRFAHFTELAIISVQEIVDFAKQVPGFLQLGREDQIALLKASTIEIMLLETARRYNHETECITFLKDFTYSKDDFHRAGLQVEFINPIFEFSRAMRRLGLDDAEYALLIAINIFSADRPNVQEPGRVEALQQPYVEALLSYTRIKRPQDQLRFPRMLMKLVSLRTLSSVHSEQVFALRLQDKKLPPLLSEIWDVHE
# [32] = target: T2, Protein skinhead-1 (Caenorhabditis elegans, UniProt P34707); assay type: functional
# T2 sequence (P34707 whole entry): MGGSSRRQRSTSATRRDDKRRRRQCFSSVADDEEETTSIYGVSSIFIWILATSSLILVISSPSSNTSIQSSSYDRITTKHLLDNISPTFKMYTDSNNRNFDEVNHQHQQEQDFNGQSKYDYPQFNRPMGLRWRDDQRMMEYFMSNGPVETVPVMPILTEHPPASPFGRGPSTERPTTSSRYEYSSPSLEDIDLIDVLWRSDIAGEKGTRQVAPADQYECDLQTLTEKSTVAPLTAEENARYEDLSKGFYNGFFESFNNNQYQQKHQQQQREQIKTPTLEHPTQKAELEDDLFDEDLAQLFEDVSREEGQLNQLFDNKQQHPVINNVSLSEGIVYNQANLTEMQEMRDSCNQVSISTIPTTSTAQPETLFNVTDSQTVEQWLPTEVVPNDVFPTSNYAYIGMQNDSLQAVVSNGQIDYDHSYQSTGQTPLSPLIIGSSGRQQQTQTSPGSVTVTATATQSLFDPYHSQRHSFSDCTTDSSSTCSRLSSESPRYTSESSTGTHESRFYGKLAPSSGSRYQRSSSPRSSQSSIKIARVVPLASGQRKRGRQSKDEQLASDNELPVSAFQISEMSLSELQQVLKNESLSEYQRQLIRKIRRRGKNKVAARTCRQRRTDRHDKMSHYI
# [33] = cells; remark: listed apart in the source
# [34] = target: Transthyretin (Homo sapiens, UniProt P02766); assay: Luminescence-based cell-based high throughput dose response assay to identify activators of Transthyretin (TTR) transcription.; assay type: functional
# [35] = Luminescent dose response cell-based high throughput screening assay for inhibitors of the Janus kinase 2 mutant JAK2V617F. [Related pubchem assays: 1446 (Primary screen.), 1521 (Confirmation assay.), 1486 (Counter screen.)]; assay type: functional
# [36] = tested on: Vero; assay: cells; assay type: functional; settings: Chlorocebus sabaeus
# [37] = target: T3, Tyrosine-protein phosphatase non-receptor type 7 (Homo sapiens, UniProt P35236); assay: inhibitors of human HePTP phosphatase, […], biochemical, absorbance, leukemia target (AID 521); assay type: functional
# T3 sequence (P35236 whole entry): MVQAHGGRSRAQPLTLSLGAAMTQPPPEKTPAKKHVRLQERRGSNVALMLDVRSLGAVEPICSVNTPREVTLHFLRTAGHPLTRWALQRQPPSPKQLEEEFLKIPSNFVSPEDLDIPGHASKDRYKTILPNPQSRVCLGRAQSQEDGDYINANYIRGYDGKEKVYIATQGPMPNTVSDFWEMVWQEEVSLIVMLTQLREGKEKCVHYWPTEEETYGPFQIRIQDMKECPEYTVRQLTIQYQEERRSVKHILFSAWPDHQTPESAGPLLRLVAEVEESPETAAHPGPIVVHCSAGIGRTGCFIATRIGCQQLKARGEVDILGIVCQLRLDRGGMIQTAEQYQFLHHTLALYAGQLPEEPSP
# [38] = target: T4, Bcl-2-related protein A1 (Mus musculus, UniProt Q07440); assay: Bfl-1 inhibitors, primary screen, biochemical, fluorescence polarization, FITC-Bid, mouse (AID 432)
# T4 sequence (Q07440 whole entry): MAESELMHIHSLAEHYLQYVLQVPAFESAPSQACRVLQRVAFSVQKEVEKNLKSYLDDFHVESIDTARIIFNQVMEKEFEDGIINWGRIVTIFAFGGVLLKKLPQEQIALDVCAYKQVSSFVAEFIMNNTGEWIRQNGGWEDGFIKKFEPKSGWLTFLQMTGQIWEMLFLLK
# [39] = inhibitors of firefly luciferase expression or activity, dose response, H4 neuroglioma cells, luminescence (AID 1990); assay type: functional, cell-based
# [40] = tested on: INS1; assay: beta cell apoptosis inhibitors, cytokine rescue, dose response, luminescence, retest (AID 449756); assay type: functional, cell-based; settings: Rattus norvegicus;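 note: cell death triggered by IL-1 beta plus TNF-alpha plus IFN-gamma mixture; protective hits raise ATP signal compared with cytokine alone wells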
# [41] = target: Nonstructural protein 1 (Influenza A virus, UniProt Q194T2); assay type: functional, Influenza A virus (A/California/07/2009(H1N1))
# [42] = Luminescence Cell-Based Dose Response HTS to Identify Inhibitors of 5'UTR Stem-Loop Driven Prion Protein mRNA Translation in H4 Neuroglioblastoma Cells. [Related pubchem assays: 1827 (Project Summary), 1813 (Primary HTS)]; assay type: functional
# [43] = inhibitors of SNCA 5'UTR-driven reporter translation, confirmation, H4 neuroglioma cells, luminescence (AID 1988); assay type: functional, cell-based
# [44] = target: T4, Bcl-2-related protein A1; assay: Bfl-1 inhibitors blocking BH3 peptide binding, confirmation, biochemical, TR-FRET, mouse Bfl-1 (AID 621);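 note: TR-FRET binding of GST-Bfl-1 to FITC-labelled Bid peptide via terbium antibody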
# [45] = P. falciparum Dd2 growth inhibitors, dose response, SYBR Green, dry powder samples, set 4 (AID 1159572); assay type: functional, cell-based
# [46] = THP-1 cell cytotoxicity, dose response, cytotoxicity control for Vif-APOBEC3G degradation inhibitor project, THP-1 cells (AID 1117359); assay type: functional; settings: Human immunodeficiency virus 1, THP-1
# Chain of Paired box protein Pax-8 (Q06710 whole entry): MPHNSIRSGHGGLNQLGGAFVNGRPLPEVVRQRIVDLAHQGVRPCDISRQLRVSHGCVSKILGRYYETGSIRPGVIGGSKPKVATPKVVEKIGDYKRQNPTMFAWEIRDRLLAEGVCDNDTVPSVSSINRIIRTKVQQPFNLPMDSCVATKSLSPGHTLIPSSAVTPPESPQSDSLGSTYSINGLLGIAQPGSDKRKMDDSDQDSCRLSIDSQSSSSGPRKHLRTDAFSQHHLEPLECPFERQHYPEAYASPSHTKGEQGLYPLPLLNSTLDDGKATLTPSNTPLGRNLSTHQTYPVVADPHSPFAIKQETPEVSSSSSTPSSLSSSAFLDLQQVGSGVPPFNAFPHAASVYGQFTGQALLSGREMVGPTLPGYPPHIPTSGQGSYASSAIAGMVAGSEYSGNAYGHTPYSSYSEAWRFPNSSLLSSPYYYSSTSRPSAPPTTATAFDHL
# Chain of Diphosphomevalonate decarboxylase (Q9FD53 whole entry): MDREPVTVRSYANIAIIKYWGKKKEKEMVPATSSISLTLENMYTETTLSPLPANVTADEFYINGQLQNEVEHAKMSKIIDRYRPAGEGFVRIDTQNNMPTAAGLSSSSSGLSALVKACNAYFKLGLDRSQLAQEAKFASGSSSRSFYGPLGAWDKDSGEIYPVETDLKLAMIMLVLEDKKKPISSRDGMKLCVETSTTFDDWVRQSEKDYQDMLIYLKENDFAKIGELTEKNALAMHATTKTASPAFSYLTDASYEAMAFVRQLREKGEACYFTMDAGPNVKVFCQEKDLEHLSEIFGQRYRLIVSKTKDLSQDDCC
# Chain of Nonstructural protein 1 (Q194T2 whole entry): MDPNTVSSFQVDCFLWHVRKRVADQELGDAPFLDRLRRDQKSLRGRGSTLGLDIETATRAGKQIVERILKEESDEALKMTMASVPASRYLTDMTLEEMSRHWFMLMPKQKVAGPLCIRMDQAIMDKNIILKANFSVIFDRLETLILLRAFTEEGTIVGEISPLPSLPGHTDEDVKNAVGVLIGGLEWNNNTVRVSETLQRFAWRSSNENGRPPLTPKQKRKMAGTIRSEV
# Chain of Photoreceptor-specific nuclear receptor (Q9Y5X4 whole entry): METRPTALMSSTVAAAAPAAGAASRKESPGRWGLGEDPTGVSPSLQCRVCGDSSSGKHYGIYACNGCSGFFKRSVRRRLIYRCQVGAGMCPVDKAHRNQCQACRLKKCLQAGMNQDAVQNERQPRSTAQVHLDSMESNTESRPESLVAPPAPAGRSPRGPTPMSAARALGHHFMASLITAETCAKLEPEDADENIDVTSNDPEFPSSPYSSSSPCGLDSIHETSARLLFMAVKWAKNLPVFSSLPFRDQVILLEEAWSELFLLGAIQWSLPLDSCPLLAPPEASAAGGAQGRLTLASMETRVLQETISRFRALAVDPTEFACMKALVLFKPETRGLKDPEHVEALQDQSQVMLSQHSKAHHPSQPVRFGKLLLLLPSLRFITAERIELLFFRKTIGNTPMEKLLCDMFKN
# Chain of Peroxisome proliferator-activated receptor gamma/Nuclear receptor corepressor 2 (P37231 whole entry): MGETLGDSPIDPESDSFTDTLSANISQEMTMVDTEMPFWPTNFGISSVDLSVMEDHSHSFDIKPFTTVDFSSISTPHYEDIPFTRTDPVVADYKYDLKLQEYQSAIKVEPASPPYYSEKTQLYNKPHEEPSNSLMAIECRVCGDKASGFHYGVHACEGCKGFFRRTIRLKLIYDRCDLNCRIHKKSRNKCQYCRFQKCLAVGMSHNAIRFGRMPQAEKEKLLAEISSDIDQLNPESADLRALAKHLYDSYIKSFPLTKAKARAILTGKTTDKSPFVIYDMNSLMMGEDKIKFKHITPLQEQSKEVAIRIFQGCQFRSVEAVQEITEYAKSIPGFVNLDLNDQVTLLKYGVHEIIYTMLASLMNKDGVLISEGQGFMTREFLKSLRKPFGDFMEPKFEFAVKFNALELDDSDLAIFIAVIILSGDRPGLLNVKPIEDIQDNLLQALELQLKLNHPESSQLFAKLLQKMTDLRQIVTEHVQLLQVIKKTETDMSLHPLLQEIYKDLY
# Chain of Peroxisome proliferator-activated receptor gamma/Nuclear receptor corepressor 2 (Q9Y618 whole entry): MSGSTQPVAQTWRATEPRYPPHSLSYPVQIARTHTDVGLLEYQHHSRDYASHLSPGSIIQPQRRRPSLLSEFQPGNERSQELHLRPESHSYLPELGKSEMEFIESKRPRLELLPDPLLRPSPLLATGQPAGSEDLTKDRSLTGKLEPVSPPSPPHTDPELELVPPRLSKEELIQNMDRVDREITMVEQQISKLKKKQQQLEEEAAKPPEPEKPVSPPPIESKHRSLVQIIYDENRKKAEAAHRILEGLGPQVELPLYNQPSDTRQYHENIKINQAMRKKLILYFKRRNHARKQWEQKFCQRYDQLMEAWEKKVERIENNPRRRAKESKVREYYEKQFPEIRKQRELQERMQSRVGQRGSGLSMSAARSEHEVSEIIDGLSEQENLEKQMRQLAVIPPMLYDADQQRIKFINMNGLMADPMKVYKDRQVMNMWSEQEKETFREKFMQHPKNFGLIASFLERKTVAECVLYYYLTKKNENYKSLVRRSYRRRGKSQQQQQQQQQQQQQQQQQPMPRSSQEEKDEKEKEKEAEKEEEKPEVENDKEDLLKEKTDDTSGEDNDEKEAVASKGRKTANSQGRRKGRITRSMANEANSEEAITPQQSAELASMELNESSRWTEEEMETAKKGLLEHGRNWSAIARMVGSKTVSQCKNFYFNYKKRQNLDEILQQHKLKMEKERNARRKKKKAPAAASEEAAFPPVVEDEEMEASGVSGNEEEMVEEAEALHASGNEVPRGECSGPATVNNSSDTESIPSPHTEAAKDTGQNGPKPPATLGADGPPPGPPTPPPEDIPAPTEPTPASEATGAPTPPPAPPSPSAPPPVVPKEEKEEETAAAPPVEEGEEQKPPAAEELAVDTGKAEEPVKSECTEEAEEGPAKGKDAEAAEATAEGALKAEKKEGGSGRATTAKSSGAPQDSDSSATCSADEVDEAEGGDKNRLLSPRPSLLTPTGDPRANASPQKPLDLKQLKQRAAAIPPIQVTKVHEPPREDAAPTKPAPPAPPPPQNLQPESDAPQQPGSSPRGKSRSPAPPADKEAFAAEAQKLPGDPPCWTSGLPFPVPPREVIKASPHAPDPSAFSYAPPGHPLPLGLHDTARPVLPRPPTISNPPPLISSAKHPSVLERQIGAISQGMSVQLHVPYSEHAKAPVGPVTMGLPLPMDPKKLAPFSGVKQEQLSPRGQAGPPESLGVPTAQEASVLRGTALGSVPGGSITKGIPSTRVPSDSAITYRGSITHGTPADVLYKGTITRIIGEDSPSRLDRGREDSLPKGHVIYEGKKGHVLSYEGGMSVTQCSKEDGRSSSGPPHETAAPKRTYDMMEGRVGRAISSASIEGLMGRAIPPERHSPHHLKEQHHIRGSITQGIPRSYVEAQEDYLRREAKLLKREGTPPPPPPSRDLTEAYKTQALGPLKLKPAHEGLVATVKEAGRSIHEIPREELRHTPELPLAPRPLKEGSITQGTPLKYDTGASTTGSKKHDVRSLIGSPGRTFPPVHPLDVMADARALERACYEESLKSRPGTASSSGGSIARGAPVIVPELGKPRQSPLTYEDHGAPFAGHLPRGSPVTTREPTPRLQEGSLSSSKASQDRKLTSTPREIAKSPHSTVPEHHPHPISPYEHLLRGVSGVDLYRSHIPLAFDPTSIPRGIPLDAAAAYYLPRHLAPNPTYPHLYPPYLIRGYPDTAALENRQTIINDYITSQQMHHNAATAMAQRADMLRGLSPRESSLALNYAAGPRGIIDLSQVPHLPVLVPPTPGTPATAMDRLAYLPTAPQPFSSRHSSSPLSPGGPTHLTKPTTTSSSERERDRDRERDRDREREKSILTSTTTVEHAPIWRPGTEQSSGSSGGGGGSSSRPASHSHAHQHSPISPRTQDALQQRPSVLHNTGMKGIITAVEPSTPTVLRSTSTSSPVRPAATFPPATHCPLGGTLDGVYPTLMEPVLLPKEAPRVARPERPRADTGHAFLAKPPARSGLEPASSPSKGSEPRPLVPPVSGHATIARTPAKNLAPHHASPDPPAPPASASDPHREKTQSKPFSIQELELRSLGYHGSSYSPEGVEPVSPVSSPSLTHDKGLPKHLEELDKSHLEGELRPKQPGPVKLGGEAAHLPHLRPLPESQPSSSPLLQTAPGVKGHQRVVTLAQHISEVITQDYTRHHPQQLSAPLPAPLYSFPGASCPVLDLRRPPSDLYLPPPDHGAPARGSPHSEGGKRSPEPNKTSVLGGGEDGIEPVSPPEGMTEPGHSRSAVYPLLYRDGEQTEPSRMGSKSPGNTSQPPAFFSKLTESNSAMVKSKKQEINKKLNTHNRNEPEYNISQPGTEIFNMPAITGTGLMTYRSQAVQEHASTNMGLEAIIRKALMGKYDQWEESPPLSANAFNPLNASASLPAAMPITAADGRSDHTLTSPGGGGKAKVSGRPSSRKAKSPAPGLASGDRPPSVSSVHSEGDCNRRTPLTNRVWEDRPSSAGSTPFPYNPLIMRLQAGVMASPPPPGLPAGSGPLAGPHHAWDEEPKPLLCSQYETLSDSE
structure (smiles),measurement,setting,value
COc1ccc(C#Cc2ccc3c(c2)[C@@H]2[C@@H](CCN2C(=O)C2CCCC2)[C@@H](CO)N3)cc1,AC50,[1],> 100 µM (inactive)
same,AC50,[2],2.82 µM (active)
same,AC50,[3],1.1 µM (active)
same,AC50,[4],1.09 µM (active)
same,AC50,[5],1.31 µM (active)
Cc1cccc(S(=O)(=O)N2CCCCN3[C@@H](CO)[C@@H](c4ccc(C#CC5CC5)cc4)[C@@H]3C2)c1,AC50,[2],1.3 µM (active)
same,AC50,[6],14.4 µM (active)
CC(C)c1ccccc1OCCn1c(=S)[nH]c2ccccc21,AC50,[7],27.6 µM (active)
same,AC50,[8],21.1 µM (active)
same,AC50,[9],32.9 µM (active)
CN1CCc2c(sc3c2c(=O)n(-c2ccccc2)c2nnc(SCc4ccc(Cl)cc4)n32)C1,EC50,[10],< 0.004 µM (active)
same,EC50,[11],< 0.1 µM (active)
same,EC50,[12],> 60 µM (not active)
CC(=O)c1sc(NS(=O)(=O)c2ccc(C)cc2)nc1-c1ccccc1,IC50,[13],> 39.8 µM (not active)
same,IC50,[14],> 39.8 µM (not active)
O=c1c(-c2ccccc2)c1-c1ccccc1 [DIPHENCYPRONE],IC50,[15],> 20 µM (inactive)
same,IC50,[16],4.21 µM (active)
same,IC50,[17],> 10 µM (inactive)
same,IC50,[18],3.1 µM (active)
same,IC50,[19],> 20 µM (inactive)
same,IC50,[20],> 20 µM (inactive)
same,IC50,[21],> 20 µM (inactive)
same,IC50,[22],> 20 µM (inactive)
same,IC50,[23],> 10 µM (inactive)
O=C(NCC1CC1)c1ccc(-n2sc3ccccc3c2=O)cc1,IC50,[24],11.9 µM (active)
N#C[C@H]1[C@@H](c2ccc(C#CC3CCCCC3)cc2)[C@@H](CO)N1S(=O)(=O)c1ccccc1,AC50,[2],4.94 µM (active)
same,AC50,[25],19 µM (active)
same,AC50,[26],18.7 µM (active)
same,AC50,[27],19.3 µM (active)
same,AC50,[28],61.4 µM (active)
same,AC50,[29],8.09 µM (active)
same,AC50,[30],32.3 µM (active)
Fc1ccccc1-c1nc(-c2ccc(Br)o2)no1,EC50,[31],> 67.6 µM (inactive)
same,IC50,[32],> 100 µM (inactive)
same,EC50,[33],> 67.6 µM (inactive)
Cn1ncc(Cl)c1C(=O)N1CCc2ccccc21,EC50,[34],> 167 µM (inactive)
Cc1nc2ccccc2c(O)c1C(=O)/C=C/c1ccccc1,IC50,[35],1.71 µM (active)
same,CC50,[36],7.78 µM (active)
same,AC50,[29],6.93 µM (active)
COCC(=O)N1CCC(n2nnc3cc(F)ccc32)CC1,IC50,[37],> 100 µM (not active)
Nc1ccc(N2CCCCC2)cc1N1CCCCC1,IC50,[38],> 100 µM (not active)
same,EC50,[39],> 120 µM (not active)
same,AC50,[40],12.9 µM (active)
same,IC50,[41],16.1 µM (active)
same,EC50,[42],> 120 µM (not active)
same,EC50,[43],> 120 µM (not active)
same,EC50,[11],0.197 µM (active)
same,IC50,[44],> 100 µM (not active)
same,EC50,[12],> 60 µM (not active)
CCCNC(=O)N1CCC2(CC1)CN(C(C)=O)[C@@H](CO)c1[nH]c3cc(OC)ccc3c12,AC50,[45],9.51 µM (active)
CC(C)Oc1ccc(C(=O)N(Cc2ccco2)C2CCS(=O)(=O)C2)cc1 (stereo unspecified),CC50,[46],> 40 µM (active)
